From paper PMC5602538, “Assessment of the Drug Interaction Potential of Unconjugated and GalNAc3-Conjugated 2′-MOE-ASOs” (Molecular Therapy. Nucleic Acids, 2017)
{GalNAc3} = trishexylamino-C6 triantennary GalNAc conjugate; e = 2'-O-(2-methoxyethyl) (MOE); d = 2'-deoxy (DNA)

Assays:
Assay type in all cases: in vitro ADME
human hepatocytes = test: Hepatocyte uptake (cell pellet and supernatant concentrations by LC-UV/MS); conditions: for Cellular concentration in hepatocytes: test concentration of 1.00 μM
Description: A time-course experiment was conducted in triplicate for each concentration of test compound for 0, 30, 60, and 120 min incubations at 37°C with 5% CO2. At the end of each respective time point, the cell suspensions were centrifuged for 8 min at a speed of 50 × g, and the supernatant from each sample was collected. The cell pellets were washed by resuspension in Williams’ Medium E, followed by centrifugation at 50 × g for 8 min. The supernatant from the wash step was discarded and the remaining cell pellets were kept for analysis. Cell pellets and respective supernatants were measured for the presence of ASO by LC-MS.
Samples were analyzed using a tandem LC-UV/MS method. A total of 72 samples per ASO, corresponding to human hepatocyte cells and supernatant fractions, was assayed. Samples, curves, and controls (QCs) were aliquoted into 96-well plates and internal standard was added. Aliquots in 96-well plates were extracted via a liquid-liquid extraction using ammonium hydroxide and phenol:chloroform:isoamyl alcohol (25:24:1). The aqueous layer was then further processed via solid phase extraction (Phenomenex, Strata X SPE), and then dried down under nitrogen and reconstituted in 140 μL of water containing 100 μM EDTA. Samples were then injected onto an Agilent 6130 LC-MS system for analysis. Two curves were created for quantitation, one utilizing UV absorbance at 260 nm and an additional curve using single ion monitoring data from the mass spectrometer. The calibration range using the MS detector was 0.0640–641 μM with liver homogenate, as used to quantitate the concentration in hepatocyte pellet samples. A minimum signal-to-noise ratio of 5:1 was used to distinguish ASO peaks from background noise. […] Acceptance criteria for calibration and QC standards were set to 85%–115% of nominal values. For the MS, three QC levels were run in triplicate at 1.60 μM, 160 μM, and 481 μM and eight of the nine QCs passed. For the UV, three QC levels were run in triplicate at 160 μM, 481 μM, and 3,205 μM and all QCs passed. All samples were stored at −70°C ± 10°C upon receipt. Hepatocyte cell count conversion to μM liver weight equivalent was calculated by converting the number of hepatocytes per sample to the liver weight equivalent: [(0.1 × 10^6 cells per sample)/128 × 10^6 cells/g)] × […] = 0.78 mg, where 1 g of liver contains 128 × 10^6 cells/g. Supernatant concentrations are calculated assuming a 100% recovery and that 1 mL William E Medium is equal to 1 g. The calibration range for ASOs in transporter studies was 0.01–10 μM in 100 μL for RLT buffer and 0.005–10 μM in 100 μL for HBSS buffer.

BCRP = test system: T1, BCRP; test: BCRP substrate study, bi-directional flux in MDCK cells; conditions: 10 μM ASO, Papp B to A / Papp A to B
T1 construct: expressed in transfected cells; host or cells: MDCK-II cells
Description: (§1) MDCK-MDR1 cells and MDCK-II cells transfected with BCRP were washed with HBSS at 37°C. Wells of the culture plate served as the apical compartment, and 150 μL of HBSS solutions was added to the apical wells. These solutions also contain one of the following: vehicle (for probe substrate controls), 100 μM test article (for test article inhibition experiments), 1 μM Ko143 (for BCRP inhibition), or 3 μM elacridar (for P-gp inhibition). A 96-well receiver tray was prepared with each well containing 300 μL of buffer solution corresponding to the apical wells. Receiver tray wells served as the basal compartment. The plate and receiver tray were assembled and incubated at 37°C for 30 min. The solution was then aspirated from the apical compartment and the 96-well plate was removed from the receiver tray. Donor and receiver wells for inhibition or donor (containing substrate) and receiver (without substrate) wells for substrate studies were then prepared for bi-directional flux studies. For the probe substrate transport assays, HBSS in each donor well contained one of the following probe substrates: BCRP, 2 μM [^3H]-prazosin; or P-gp, 100 nM [^3H]-quinidine. For positive control inhibition assays, HBSS contained the reference inhibitor in both donor and receiver wells, with the probe substrate only in donor wells. […] These samples were counted on a 1450 Microbeta (PerkinElmer). For samples containing test articles, samples were quantitated using LC-MS.
(§2) For BCRP and P-gp, apparent permeability Papp was determined using the equation Papp=(Vr/(A×C0))×(Cr/Δt) whereby Papp is the apparent permeability, Vr is the volume of the receiver compartment (mL), C0 is the initial concentration of the donor solution, A is the monolayer area (cm^2), Cr is the receiver well concentration at the end of the incubation, and Δt represents the change in time from t = 0 (s). The efflux ratio (ER) was determined by dividing Papp in the B→A direction by that in the A→B direction as: ER=Papp(B→A)/Papp(A→B).

P-gp = test system: T2, P-gp; test: P-gp substrate study, bi-directional flux in MDCK-MDR1 cells; conditions: 10 μM ASO, Papp B to A / Papp A to B
T2 construct: host or cells: MDCK-MDR1 (MDCK cells stably transfected with MDR1)
Description: as §1, §2

Substance	Average cellular concentration in hepatocytes (human hepatocytes; after 30-min incubation) [µM]	Average cellular concentration in hepatocytes (human hepatocytes; after 120-min incubation) [µM]	Efflux ratio, BCRP (BCRP)	Efflux ratio, P-gp (P-gp)	Cellular concentration in hepatocytes (human hepatocytes; after 120 min of incubation) [µM]	Cellular concentration in hepatocytes (human hepatocytes; time points 0–60 min)
ISIS 304801: 20-mer (5-10-5) 2′-MOE gapmer PS backbone antisense inhibitor of apoC-III, sequence AGCTTCTTGTCCAGCTTTAT (sugars from the 5' end e5 d10 e5, all phosphorothioate, methylation of C not given here)	56.3	140	≤ 2.0	≤ 2.0		
ISIS 420915: 20-mer 2′-MOE gapmer PS backbone antisense inhibitor of transthyretin, sequence TCTTGGTTACATGAAATCCC (all phosphorothioate, sugars by position and methylation of C not given here; 2'-MOE gapmer)	52.2	106	≤ 2.0	≤ 2.0		
ISIS 681257: 20-mer 2′-MOE gapmer PS/PO mixed backbone ASO conjugated to 5′-trishexylamino GalNAc3, targets Lp(a), sequence TGCTCCGTTGGTGCTTGTTC (5' {GalNAc3}, sugars by position and backbone not given here; 2'-MOE gapmer with mixed PS/PO backbone)	14.0	50.6	≤ 2.0	≤ 2.0	0.626	below the level of quantitation
